Patent publication US10047104B2, “Bicyclic heterocyclyl derivatives as IRAK4 inhibitors” (Aurigene Discovery Technologies Limited, priority 2014, dated 2018)
Counter-ions that a name gives are not always drawn.

Target: T1, recombinant IRAK-4 kinase (Homo sapiens, UniProt Q9NWZ3)
T1 construct: purchased Millipore, USA
T1 sequence (Q9NWZ3 1-460): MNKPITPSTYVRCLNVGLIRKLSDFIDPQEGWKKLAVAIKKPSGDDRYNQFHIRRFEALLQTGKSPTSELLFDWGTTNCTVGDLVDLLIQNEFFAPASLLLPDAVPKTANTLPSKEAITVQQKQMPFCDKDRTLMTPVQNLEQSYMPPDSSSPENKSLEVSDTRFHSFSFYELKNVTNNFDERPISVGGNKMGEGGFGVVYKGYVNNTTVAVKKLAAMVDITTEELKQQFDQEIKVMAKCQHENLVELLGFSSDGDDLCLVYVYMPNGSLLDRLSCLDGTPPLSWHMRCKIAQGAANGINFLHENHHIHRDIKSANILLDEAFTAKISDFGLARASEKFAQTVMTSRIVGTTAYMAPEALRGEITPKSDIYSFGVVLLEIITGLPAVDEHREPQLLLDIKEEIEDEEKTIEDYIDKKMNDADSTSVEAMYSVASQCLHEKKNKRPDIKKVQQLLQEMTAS
Test: IRAK-4 Biochemical Assay (TR-FRET)
Conditions: 5 ng IRAK-4 kinase, 100 nM Biotin Histone H3, 20 μM ATP, 30 minutes pre-incubation, read-out: IC50 values for IRAK4 activity
Protocol: Compounds were tested for their potential to inhibit IRAK-4 enzyme in a TR-FRET assay using recombinant IRAK-4 kinase from Millipore, USA. The assay buffer was 50 mM Tris-HCl pH 7.5, 20 mM MgCl2, 1 mM EGTA, 2 mM DTT, 3 mM MnCl2 and 0.01% Tween20. 5 ng of IRAK-4 kinase was used for the assay. After pre-incubation of enzyme with test compound for 30 minutes at room temperature, a substrate mix containing 100 nM Biotin Histone H3 (Millipore, USA) and 20 μM ATP (Sigma, USA) was added and the reaction was incubated for 30 minutes. Post incubation, the reaction was stopped by the addition of stop mix containing 40 mM EDTA, 1 nM of Europium-Anti-Phospho-Histone H3 (Ser10) antibody (Perkin Elmer, USA) and 20 nM Sure Light Allophycocyanin-Streptavidin (Perkin Elmer, USA).

| SMILES | IC50 |
| --- | --- |
| Cc1cc(-c2ccc(C(=O)Nc3cc4sc(N5CCOCC5)nc4nc3N3CC[C@H](O)C3)s2)ccn1 [Example 81, (S)—N-(5-(3-hydroxypyrrolidin-1-yl)-2-morpholinothiazolo[4,5-b]pyridin-6-yl)-5-(2-methylpyridin-4-yl)thiophene-2-carboxamide] | > 100 nM |
| Cc1cc(-c2ccc(C(=O)Nc3cc4sc(N5CCOCC5)nc4nc3N3CC[C@H](O)C3)o2)ccn1 [Example 82, (S)—N-(5-(3-hydroxypyrrolidin-1-yl)-2-morpholinothiazolo[4,5-b]pyridin-6-yl)-5-(2-methylpyridin-4-yl)furan-2-carboxamide] | < 50 nM |
| Cc1cc(-c2nc(C(=O)Nc3cc4sc(N5CCOCC5)nc4nc3N3CCC[C@H](O)C3)co2)ccn1 [Example 83, (S)—N-(5-(3-hydroxypiperidin-1-yl)-2-morpholinothiazolo[4,5-b]pyridin-6-yl)-2-(2-methylpyridin-4-yl)oxazole-4-carboxamide] | < 50 nM |
| Cc1cc(-c2nc(C(=O)Nc3cc4sc(N5CCOCC5)nc4nc3N3CCC(O)CC3)co2)ccn1 [Example 84, N-(5-(4-hydroxypiperidin-1-yl)-2-morpholinothiazolo[4,5-b]pyridin-6-yl)-2-(2-methylpyridin-4-yl)oxazole-4-carboxamide] | < 50 nM |
| Cc1cc(-c2nc(C(=O)Nc3cc4sc(N5CCOCC5)nc4nc3N3CC[C@@H](O)C3)co2)ccn1 [Example 85, (R)—N-(5-(3-hydroxypyrrolidin-1-yl)-2-morpholinothiazolo[4,5-b]pyridin-6-yl)-2-(2-methylpyridin-4-yl)oxazole-4-carboxamide] | < 50 nM |
| Cc1cc(-c2nc(C(=O)Nc3cc4sc(N5CCCCC5)nc4nc3N3CCC3)co2)ccn1 [Example 87, N-(5-(azetidin-1-yl)-2-(piperidin-1-yl)thiazolo[4,5-b]pyridin-6-yl)-2-(2-methylpyridin-4-yl)oxazole-4-carboxamide] | < 50 nM |
| Cc1cc(-c2nc(C(=O)Nc3cc4sc(N5CCCCC5)nc4nc3N3CCCC3)co2)ccn1 [Example 88, 2-(2-methylpyridin-4-yl)-N-(2-(piperidin-1-yl)-5-(pyrrolidin-1-yl)thiazolo[4,5-b]pyridin-6-yl)oxazole-4-carboxamide] | < 50 nM |
| Cc1cc(-c2nc(C(=O)Nc3cc4sc(N5CCOCC5)nc4nc3N3CCCC3)co2)ccn1 [Example 89, 2-(2-methylpyridin-4-yl)-N-(2-morpholino-5-(pyrrolidin-1-yl)thiazolo[4,5-b]pyridin-6-yl)oxazole-4-carboxamide] | < 50 nM |
| Cc1cc(-c2ccc(C(=O)Nc3cc4sc(N5CCOCC5)nc4nc3N3CCCCC3)o2)ccn1 [Example 90, 5-(2-methylpyridin-4-yl)-N-(2-morpholino-5-(piperidin-1-yl)thiazolo[4,5-b]pyridin-6-yl)furan-2-carboxamide] | < 50 nM |
| Cc1cc(-c2nc(C(=O)Nc3cc4sc(N5CCOCC5)nc4nc3N3CCCCCC3)co2)ccn1 [Example 91, N-(5-(azepan-1-yl)-2-morpholinothiazolo[4,5-b]pyridin-6-yl)-2-(2-methylpyridin-4-yl)oxazole-4-carboxamide] | < 50 nM |
| Nc1cc(-c2nc(C(=O)Nc3cc4sc(N5CCOCC5)nc4nc3N3CCCCC3)co2)ccn1 [Example 92, 2-(2-aminopyridin-4-yl)-N-(2-morpholino-5-(piperidin-1-yl)thiazolo[4,5-b]pyridin-6-yl)oxazole-4-carboxamide hydrochloride] | < 50 nM |
| Cc1cc(-c2nc(C(=O)Nc3cc4sc(N5CCOCC5)nc4nc3N3CCC3)co2)ccn1 [Example 93, N-(5-(azetidin-1-yl)-2-morpholinothiazolo[4,5-b]pyridin-6-yl)-2-(2-methylpyridin-4-yl)oxazole-4-carboxamide] | < 50 nM |
| Cc1cc(-c2nc(C(=O)Nc3cc4sc(N5CCOCC5)nc4nc3N3CCC[C@@H](O)C3)co2)ccn1 [Example 94, (R)—N-(5-(3-hydroxypiperidin-1-yl)-2-morpholinothiazolo[4,5-b]pyridin-6-yl)-2-(2-methylpyridin-4-yl)oxazole-4-carboxamide] | < 50 nM |
| Cc1cc(-c2ccc(C(=O)Nc3cc4sc(N5CCOCC5)nc4nc3N3CCC[C@@H](O)C3)o2)ccn1 [Example 95, (R)—N-(5-(3-hydroxypiperidin-1-yl)-2-morpholinothiazolo[4,5-b]pyridin-6-yl)-5-(2-methylpyridin-4-yl)furan-2-carboxamide] | < 50 nM |
| C[C@H](O)Cn1cc(-c2cccc(C(=O)Nc3cc4sc(N5CCOCC5)nc4nc3N3CCCCC3)n2)cn1 [Example 96, (S)-6-(1-(2-hydroxypropyl)-1H-pyrazol-4-yl)-N-(2-morpholino-5-(piperidin-1-yl)thiazolo[4,5-b]pyridin-6-yl)picolinamide] | < 50 nM |
| Cc1cc(-c2ccc(C(=O)Nc3cc4sc(N5CCOCC5)nc4nc3N3CCC(F)CC3)o2)ccn1 [Example 97, N-(5-(4-fluoropiperidin-1-yl)-2-morpholinothiazolo[4,5-b]pyridin-6-yl)-5-(2-methylpyridin-4-yl)furan-2-carboxamide] | < 50 nM |
| Cc1cc(-c2nc(C(=O)Nc3cc4sc(N5CCOCC5)nc4nc3N3CCC(F)CC3)co2)ccn1 [Example 98, N-(5-(4-fluoropiperidin-1-yl)-2-morpholinothiazolo[4,5-b]pyridin-6-yl)-2-(2-methylpyridin-4-yl)oxazole-4-carboxamide] | < 50 nM |
| Cc1cc(-c2nc(C(=O)Nc3cc4sc(N5CCOCC5)nc4nc3-c3cnn(C)c3)co2)ccn1 [Example 99, N-(5-(1-methyl-1H-pyrazol-4-yl)-2-morpholinothiazolo[4,5-b]pyridin-6-yl)-2-(2-methylpyridin-4-yl)oxazole-4-carboxamide] | < 50 nM |
| Cc1cc(-c2nc(C(=O)Nc3cc4sc(N5CCOCC5)nc4nc3-c3cccc(F)c3)co2)ccn1 [Example 100, N-(5-(3-fluorophenyl)-2-morpholinothiazolo[4,5-b]pyridin-6-yl)-2-(2-methylpyridin-4-yl)oxazole-4-carboxamide] | < 50 nM |
| Cc1cc(-c2ccc(C(=O)Nc3cc4sc(N5CCOCC5)nc4nc3N3CCC(O)CC3)o2)ccn1 [Example 101, N-(5-(4-hydroxypiperidin-1-yl)-2-morpholinothiazolo[4,5-b]pyridin-6-yl)-5-(2-methylpyridin-4-yl)furan-2-carboxamide] | < 50 nM |
| Cc1cc(-c2ccc(C(=O)Nc3cc4sc(N5CCOCC5)nc4nc3N3CCCC(F)C3)o2)ccn1 (stereo not shown) [Example 102, N-(5-(3-fluoropiperidin-1-yl)-2-morpholinothiazolo[4,5-b]pyridin-6-yl)-5-(2-methylpyridin-4-yl)furan-2-carboxamide] | < 50 nM |
| COc1ccc(-c2nc(C(=O)Nc3cc4oc(N5CCOCC5)nc4nc3N3CC[C@H](O)C3)co2)cn1 [Example 103, (S)—N-(5-(3-hydroxypyrrolidin-1-yl)-2-morpholinooxazolo[4,5-b]pyridin-6-yl)-2-(6-methoxypyridin-3-yl)oxazole-4-carboxamide] | > 100 nM |
| COc1ccc(-c2nc(C(=O)Nc3cc4oc(N5CCOCC5)nc4nc3N3CC[C@@H](O)C3)co2)cn1 [Example 105, (R)—N-(5-(3-hydroxypyrrolidin-1-yl)-2-morpholinooxazolo[4,5-b]pyridin-6-yl)-2-(6-methoxypyridin-3-yl)oxazole-4-carboxamide] | > 100 nM |
| COc1ccc(-c2nc(C(=O)Nc3cc4oc(N5CCOCC5)nc4nc3N3CCC(O)C3)co2)cn1 (stereo not shown) [Example 106, N-(5-(3-hydroxypyrrolidin-1-yl)-2-morpholinooxazolo[4,5-b]pyridin-6-yl)-2-(6-methoxypyridin-3-yl)oxazole-4-carboxamide] | > 100 nM |
| Cc1cc(-c2ccc(C(=O)Nc3cc4oc(N5CCOCC5)nc4nc3N3CC[C@H](O)C3)o2)ccn1 [Example 107, (S)—N-(5-(3-hydroxypyrrolidin-1-yl)-2-morpholinooxazolo[4,5-b]pyridin-6-yl)-5-(2-methylpyridin-4-yl)furan-2-carboxamide] | > 100 nM |
| Cc1cc(-c2ccc(C(=O)Nc3cc4oc(N5CCOCC5)nc4nc3N3CC[C@H](O)C3)s2)ccn1 [Example 108, (S)—N-(5-(3-hydroxypyrrolidin-1-yl)-2-morpholinooxazolo[4,5-b]pyridin-6-yl)-5-(2-methylpyridin-4-yl)thiophene-2-carboxamide] | > 100 nM |
| Cc1cc(-c2nc(C(=O)Nc3cc4oc(N5CCCCC5)nc4nc3N3CCC3)co2)ccn1 [Example 109, N-(5-(azetidin-1-yl)-2-(piperidin-1-yl)oxazolo[4,5-b]pyridin-6-yl)-2-(2-methylpyridin-4-yl)oxazole-4-carboxamide] | > 100 nM |
| Cc1cc(-c2nc(C(=O)Nc3cc4oc(N5CCOCC5)nc4nc3N3CCC3)co2)ccn1 [Example 110, N-(5-(azetidin-1-yl)-2-morpholinooxazolo[4,5-b]pyridin-6-yl)-2-(2-methylpyridin-4-yl)oxazole-4-carboxamide] | < 50 nM |
